Bounds are passed on as bounds.

The conditions of data set [1]: German Published patent application No. 1,231,705 and 1,249,281; cited from earlier work.
For data set [2], the system named is running activity of mice pre-treated with α-amphetamine sulphate. Put plainly: Inhibition of running activity of mice pre-treated with α-amphetamine sulphate (Table III, c). The note with it: Mus musculus, ip, 3 h, 5 mg/kg α-amphetamine sulphate, 180 minutes; for inhibition in vivo at 12 mg/kg: 12mg/kg i/p, read-out: c % inhibition of motility in the treadwheel by 12mg/kg i/p; for inhibition in vivo at 25 mg/kg: 25mg/kg i/p, read-out: c % inhibition of motility in the treadwheel by 25mg/kg i/p. The class given is in vivo.

In data set [3] the test system is blood pressure and cardiac frequency of the narcotised cat. Put plainly: Influence on the blood pressure and cardiac frequency of the narcotised cat (Table I). The format is in vivo. Details: unit not given here. The note with it: for Blood pressure lowered by 30% by: dose lowering blood pressure by 30%; for Blood pressure lowered by 50% by: dose lowering blood pressure by 50%. The source says:
(§1) Influence on the blood pressure and cardiac frequency and also
(§2) on the carotid sinus reflex of the narcotised cat
(§3) Table I provides a general summary of the influence of different piperazinylquinazolones on the blood pressure, the cardiac frequency and the carotid sinus reflex of the narcotised cat.

Data set [4] has as its system duration of sleep of mice under hexobarbital. In words: Prolongation of hexobarbital sleep in mice (Table III, d). The class given is in vivo. The settings on record: Mus musculus, ip; 15 mg/kg i.p.; 75 mg/kg hexobarbital; read-out: d % prolongation of sleep under hexebarbital by 15 mg/kg i.p. How it is done: d = percentage prolongation of the duration of sleep of mice which had received 75 mg/kg. of hexobarbital, reckoned on the duration of the sleep of control animals.

Data set [5] deals with mouse. In words: Mice falling from a rotating bar (Table III, a). The format is in vivo. The note with it: ip, read-out: a PD50 mg/kg i.p. The source says: The central damping actions of the piperazinyl quinazolones on the mouse can be seen from Table III.
a = dose at which 50% of the mice fall from a rotating bar;

Data set [6] in a line: LD50 (mean lethal dose) on the mouse (Table II). The settings on record: in vivo. The source says: (§4) on the despinalised rat. The mean lethal doses for the mouse are also
The subject of data set [7] is defence reaction after the thermal stimulation of the tail of the mouse. In words: Analgesic effect on the mouse: delay in defence reaction after thermal stimulation of the tail (Table IV). The class given is in vivo. The note with it: po; mouse; per os; 25% delay; read-out: Delay in the defence reaction after the thermal stimulation of the tail of the mouse by 25% by mg/kg per os. The source says:
From Table IV below one can see the analgesic action, measured in terms of the delayed reaction during the thermal irritation of the mouse tail. The analgesically effective doses are also below those which reduce the motor behaviour, that is to say the normal movement processes (cf. Table III).
Analgesic effect on the mouse
Delay in the defence reaction after
the thermal stimulation of the tail

Data set [8] has as its system carotid sinus reflex. In words: Inhibition of the carotid sinus reflex of the narcotised cat (Table I). The class given is in vivo. Details: unit not given here. The settings on record: for Inhibition of the carotid sinus reflex by 30% by: dose for 30% inhibition; for Inhibition of the carotid sinus reflex by 50% by: dose for 50% inhibition.
Source text: as §1, §2, §3
The inhibition of the carotid sinus reflex brought about by the piperazinyl quinazolones occurs at lower doses than the spontaneous lowering of the blood pressure in the cat.

Data set [9] deals with blood pressure and cardiac frequency of the narcotised rat. Put plainly: Influence on the blood pressure and the cardiac frequency of the narcotised rat (Table II). The class given is in vivo. The note with it: iv, i/v, read-out: Blood pressure lowered by 30% by mg/kg i/v. The source says: Influence on the blood pressure and the cardiac frequency of the
blood pressure and the cardiac frequency of the narcosed rate and also on […]

Data set [10] concerns hypertensive effect of 1-adrenalin. In words: 50% inhibition of hypertensive effect of 0.001 mg/kg i/v 1-adrenalin on the despinalised rat (Table II). The class given is in vivo. The settings on record: iv, read-out: 50% inhibition of hypertensive effect after i/v dose of Adrenalin by mg/kg i/v. How it is done: (§5) also on the hypertensive effect of 0.001 mg/kg i/v 1-adrenalin and
(§6) blood pressure and the cardiac frequency of the narcosed rate and also on
(§7) the hypertensive effect of 0.001 mg/kg i.v. 1-adrenaline and noradrenaline
as §4

The subject of data set [11] is hypertensive effect of noradrenalin. In words: 50% inhibition of hypertensive effect of 0.001 mg/kg i/v noradrenalin on the despinalised rat (Table II). The note with it: iv, read-out: 50% inhibition of hypertensive effect after i/v dose of Noradrenalin by mg/kg i/v. The format is in vivo. How it is done: as §5, §6, §7, §4
Data set [12] has as its system mouse. Put plainly: Inhibition of spontaneous motility, sedation, muscular relaxation, loss of grip on horizontal wire mesh in mice (Table III, b). The format is in vivo. The note with it: po, dose at which an average of 50% of the mice display symptoms, read-out: b SD50 mg/kg oral.
Data set [13] concerns systolic and diastolic blood pressure. Put plainly: Orientating clinical test in patients (FIGS. 1 and 2). The format is in vivo, 7 female and 1 male patient.
[14] abbreviates: 10 and 20 mg per os, 7 female and 1 male patient.

On to `CCOc1ccc2nc(CN(C)C)n(C)c(=O)c2c1` [2-dimethylaminomethyl-3-methyl-6-ethoxyquinazolone-4], for which the “analgesic action compared with 4-dimethylamino-1-phenyl-2,3-dimethylpyrazolone-5” value in data set [1] was “comparable”.

The LD50 is the dose at which mortality reaches 50%. Turning to `COc1cc2nc(CCN3CCN(c4ccccc4C)CC3)[nH]c(=O)c2cc1OC` [Example 2, 2-(2-(1-(2-tolyl)-piperazinyl-4)ethyl)-6,7-dimethoxy-4(3H)-quinazolone], in data set [2], the inhibition in vivo at 12 mg/kg was 11% and the inhibition in vivo at 25 mg/kg was found to be 10%. Besides, in data set [3], the “Blood pressure lowered by 30% by” value is 0.029 and the “Blood pressure lowered by 50% by” value is recorded as over 1.6. Moreover, the change in vivo at 15 mg/kg in data set [4] is 121%. Further, the ED50 in data set [5] is 35 mg/kg. The same compound had an LD50 in data set [6] of 70 mg/kg. For the same compound, the ED25 in data set [7] came to 1 mg/kg. Further, in data set [8], the “Inhibition of the carotid sinus reflex by 30% by” value (“Inhibition … by 30% by” for short) is under 0.01 and the “Inhibition of the carotid sinus reflex by 50% by” value (“Inhibition … by 50% by” below) was found to be 0.02. In addition, in data set [9], the ED30 was determined as 0.65 mg/kg. The ED50 in data set [10] stood at 0.042 mg/kg. In addition, the ED50 in data set [11] was determined as 1.4 mg/kg. Further, the ED50 in data set [12] was determined as 140 mg/kg.

With `COc1cc2nc(CCN3CCN(c4ccccc4OC)CC3)[nH]c(=O)c2cc1OC` [Example 6, 2-(2-(1-(2-methoxyphenyl)piperazinyl-4)ethyl)-6,7-dimethoxy-4(3H)-quinazolone], in data set [2], the inhibition in vivo at 12 mg/kg was found to be 19% and the inhibition in vivo at 25 mg/kg was determined as 28%. For the same compound, in data set [3], the “Blood pressure lowered by 30% by” value was 0.07 and the “Blood pressure lowered by 50% by” value is recorded as 0.61. Further, the change in vivo at 15 mg/kg in data set [4] is 79%. Also, the ED50 in data set [5] was 34 mg/kg. In [6], this compound came in with a median lethal dose (LD50) of 600 mg/kg. The ED25 in data set [7] amounted to 1.5 mg/kg. For the same compound, in data set [13] (setting [14]), the “effect on the sensorium” value is “no effect on the sensorium”, the “lowering of the diastolic blood pressure” value is on record as “statistically significant lowering”, the “lowering of the systolic blood pressure” value is “statistically significant lowering” and the tolerance entry is “very good tolerance”. The “difference in the action of 10 and 20 mg.” value in [13] (10 vs 20 mg, FIGS. 1 and 2) is recorded as “statistically confirmed”. Also, in data set [13] (mean initial blood pressure 171.9 mm Hg systolic, 95.3 mm Hg diastolic, FIGS. 1 and 2), the “dose dependence of the lowering of the blood pressure” value is “dependent upon the dose”. Also, in data set [8], the “Inhibition … by 30% by” value was determined as 0.12 and the “Inhibition … by 50% by” value came to 0.35. For the same compound, the ED30 in [9] came out at 0.35 mg/kg. Further, the ED50 in data set [10] came out at 0.036 mg/kg. In addition, the ED50 in data set [11] was over 2.5 mg/kg. Further, the ED50 in data set [12] was determined as 40 mg/kg.

For `COc1cc2nc(CCN3CCN(c4ccccc4Cl)CC3)[nH]c(=O)c2cc1OC` [Example 11, 2-(2-(1-(2-chlorophenyl)piperazinyl-4)ethyl)-6,7-dimethoxy-4(2H)-quinazolone], in [2], the inhibition in vivo at 12 mg/kg came to 18% and the inhibition in vivo at 25 mg/kg came to 32%. In data set [3], the “Blood pressure lowered by 30% by” value came out at 0.04 and the “Blood pressure lowered by 50% by” value is recorded as over 1.6. Moreover, the change in vivo at 15 mg/kg in [4] was 87%. Moreover, the ED50 in data set [5] worked out at 53 mg/kg. In data set [6], the 50% lethal dose (LD50) is 200 mg/kg. In addition, the ED25 in [7] is 4 mg/kg. In data set [8], the “Inhibition … by 30% by” value came out at 0.017 and the “Inhibition … by 50% by” value is on record as 0.04. Moreover, in [9], the ED30 is 0.1 mg/kg. In addition, the ED50 in data set [10] came to 0.048 mg/kg. The ED50 in data set [11] was over 2.5 mg/kg. In addition, in [12], the ED50 came out at 110 mg/kg.

`COc1cc2nc(CCN3CCN(c4ccccc4F)CC3)[nH]c(=O)c2cc1OC` [Example 14, 2-(2-(1-(2-fluorophenyl)piperazinyl-4)ethyl)-6,7-dimethoxy-4(3H)-quinazolone]: the inhibition in vivo at 25 mg/kg in data set [2] was 1%. Moreover, the “Blood pressure lowered by 30% by” value in data set [3] is recorded as 0.9. Also, the “Blood pressure lowered by 50% by” value in data set [3] was over 1.6. Also, in data set [4], the change in vivo at 15 mg/kg was found to be 68%. The ED50 in data set [5] was 61 mg/kg; in data set [10] it was 0.058 mg/kg; in [11], over 2.5 mg/kg; in data set [12], 180 mg/kg. In data set [6], this compound gave a 50% lethal dose (LD50) of 150 mg/kg. In addition, in data set [7], the ED25 was determined as 2 mg/kg. In data set [8], the “Inhibition … by 30% by” value is reported as 0.04. Moreover, the “Inhibition … by 50% by” value in data set [8] turned out to be 0.15. Further, in [9], the ED30 came out at 0.18 mg/kg.

Values taken from patent US3984555A, “Therapeutic piperazinylalkyl-quinazolone-(4)-derivatives” (Byk Gulden Lomberg Chemische Fabrik Gesellschaft mit …, priority 1970, dated 1976).
